In assay [1] the test system is HIF1a protein in H9c2 rat cardiomyocytes. The assay can be described thus: Cell-based HIF-alpha stabilization assay (inhibition of PHD in cells). As to conditions: 24 hrs compound incubation, HIF1a protein by ELISA; for EC50: Rattus norvegicus, H9c2, 24 h, read-out: Inhibition of PHD in cells (pEC50) (converted). The essentials: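 HIF1a stabilization was measured by ELISA on lysates of H9c2 rat cardiomyocytes after 24 h exposure to 11 serial compound concentrations, expressed relative to the desferrioxamine maximum. Curve fits gave EC50. EC50pos denotes the concentration producing half the desferrioxamine maximal response.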
On the technique in general: ELISA stands for enzyme-linked immunosorbent assay.

Assay [2] deals with PHD2 enzyme (residues 181-417) (Homo sapiens (Human), UniProt Q9GZT9). The assay can be described thus: Inhibition of PHD enzyme (LC/MS peptide hydroxylation assay). The format is biochemical. Conditions: PHD2 (residues 181-417) 5 nM, 60 min pre-incubation, -log(IC50), IC50 molar. An outline of the steps: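 Hydroxylated peptide quantified by LC/MS after 60 min turnover of 1 uM biotinylated peptide with 2 uM 2-oxoglutarate and 1 mM ascorbate, stopped by excess tight-binding inhibitor. Beforehand, 5 nM enzyme and compound were preincubated 60 min at RT, pH 7.3 HEPES/KCl/TCEP/FeCl2/BSA buffer. Values as pIC50 (−log molar IC50).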
Chain of PHD2 enzyme (residues 181-417) (Q9GZT9 181-417): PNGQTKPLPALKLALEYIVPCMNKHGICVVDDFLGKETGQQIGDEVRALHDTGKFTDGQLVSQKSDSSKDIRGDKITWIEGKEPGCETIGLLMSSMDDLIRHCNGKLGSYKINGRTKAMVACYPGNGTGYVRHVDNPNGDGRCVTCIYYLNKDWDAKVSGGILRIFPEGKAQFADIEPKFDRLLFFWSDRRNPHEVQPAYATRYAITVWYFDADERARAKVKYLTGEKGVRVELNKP

Structures are written as SMILES.

Regarding `CC(C)CNC(=O)c1ccc(-n2ncc(-c3ccc(C#N)cc3)c2O)nc1` [Example 160, 6-(4-(4-cyanophenyl)-5-hydroxy-1H-pyrazol-1-yl)-N-isobutylnicotinamide], in assay [1], the EC50 is 759 nM. Moreover, in assay [2], the “PHD Inhibition (pIC50)” value is 6.9.
As to `CCCN1CCC(N(C)C(=O)c2ccc(-n3ncc(-c4ccc(C#N)cc4C)c3O)nc2)CC1` [Example 294, 6-(4-(4-cyano-2-methylphenyl)-5-hydroxy-1H-pyrazol-1-yl)-N-methyl-N-(1-propylpiperidin-4-yl)nicotinamide], the EC50 in assay [1] is 1120 nM. Further, in assay [2], the “PHD Inhibition (pIC50)” value was found to be 8.22.
With `CNC(=O)c1ccc(-n2ncc(-c3ccc(C#N)cc3)c2O)nc1` [Example 150, 6-(4-(4-cyanophenyl)-5-hydroxy-1H-pyrazol-1-yl)-N-methylnicotinamide], the EC50 in assay [1] is 2510 nM. Also, the “PHD Inhibition (pIC50)” value in assay [2] is reported as 7.58.
The like results for `Cc1cc(C#N)ccc1-c1cnn(-c2ccc(C(=O)NCCCN3CCCCC3C)cn2)c1O` (centres unmarked) [Example 97, 6-(4-(4-cyano-2-methylphenyl)-5-hydroxy-1H-pyrazol-1-yl)-N-(3-(2-methylpiperidin-1-yl)propyl)nicotinamide] were, in that order, 56.2 nM and 8.
Taken in the same sequence, the figures for `COC[C@H]1CCC[C@H]1NC(=O)c1ccc(-n2ncc(-c3ccnc(OC)c3)c2O)nc1` [Example 45, 6-(5-hydroxy-4-(2-methoxypyridin-4-yl)-1H-pyrazol-1-yl)-N-((1R,2S)-2-(methoxymethyl)cyclopentyl)nicotinamide] were 562 nM and 8.
With `Cc1c(-c2cnn(-c3ccc(C(=O)N4CCN(C)C5(CC5)C4)cn3)c2O)ccc(C#N)c1F` [Example 324, 2-fluoro-4-(5-hydroxy-1-(5-(4-methyl-4,7-diazaspiro[2.5]octane-7-carbonyl)pyridin-2-yl)-1H-pyrazol-4-yl)-3-methylbenzonitrile], the EC50 in assay [1] was 832 nM. The “PHD Inhibition (pIC50)” value in assay [2] is 8.54.
The like results for `COCCCNC(=O)c1ccc(-n2ncc(-c3ccc(=O)n(C)c3)c2O)nc1` [Example 216, 6-(5-hydroxy-4-(1-methyl-6-oxo-1,6-dihydropyridin-3-yl)-1H-pyrazol-1-yl)-N-(3-methoxypropyl)nicotinamide] were, in that order, 5250 nM and 7.1.
Taken in the same sequence, the figures for `N#Cc1ccc(-c2cnn(-c3ccc(C(=O)N[C@@H]4CCOC4)cn3)c2O)cc1` [Example 154, (R)-6-(4-(4-cyanophenyl)-5-hydroxy-1H-pyrazol-1-yl)-N-(tetrahydrofuran-3-yl)nicotinamide] were 1480 nM and 7.68.
On to `CO[C@H]1CC[C@H](NC(=O)c2ccc(-n3ncc(-c4ccc(C#N)cc4)c3O)nc2)CC1` [Example 229, 6-(4-(4-cyanophenyl)-5-hydroxy-1H-pyrazol-1-yl)-N-((1r,4r)-4-methoxycyclohexyl)nicotinamide], for which the EC50 in assay [1] is 1050 nM. Moreover, the “PHD Inhibition (pIC50)” value in assay [2] is reported as 7.62.
Taken in the same sequence, the figures for `COc1cc(-c2cnn(-c3ccc(C(=O)N[C@H]4CC[C@@H](OC)CC4)cn3)c2O)ccn1` [Example 9, 6-(5-hydroxy-4-(2-methoxypyridin-4-yl)-1H-pyrazol-1-yl)-N-((1s,4s)-4-methoxycyclohexyl)nicotinamide] were 525 nM and 7.5.
With `N#Cc1ccc(-c2cnn(-c3ccc(C(=O)NC4CC5(COC5)C4)cn3)c2O)cc1` [Example 237, 6-(4-(4-cyanophenyl)-5-hydroxy-1H-pyrazol-1-yl)-N-(2-oxaspiro[3.3]heptan-6-yl)nicotinamide], the EC50 in assay [1] was 447 nM. Further, the “PHD Inhibition (pIC50)” value in assay [2] is listed as 7.54.
Taken in the same sequence, the figures for `COCCC(C)NC(=O)c1ccc(-n2ncc(-c3ccc(C#N)cc3C)c2O)nc1` (centres unmarked) [Example 69, 6-(4-(4-cyano-2-methylphenyl)-5-hydroxy-1H-pyrazol-1-yl)-N-(4-methoxybutan-2-yl)nicotinamide] were 89.1 nM and 7.22.
The like results for `CCOCCNC(=O)c1ccc(-n2ncc(-c3ccc(C#N)cc3)c2O)nc1` [Example 112, 6-(4-(4-cyanophenyl)-5-hydroxy-1H-pyrazol-1-yl)-N-(2-ethoxyethyl)nicotinamide] were, in that order, 1380 nM and 7.32.
Take `Cc1cc(C#N)ccc1-c1cnn(-c2ccc(C(=O)N3CCC[C@@H](N(C)C4CC4)C3)cn2)c1O` [Example 383, (R)-4-(1-(5-(3-(cyclopropyl(methyl)amino)piperidine-1-carbonyl)pyridin-2-yl)-5-hydroxy-1H-pyrazol-4-yl)-3-methylbenzonitrile]: the EC50 in assay [1] was 1100 nM. Besides, the “PHD Inhibition (pIC50)” value in assay [2] came to 8.28.
Turning to `Cc1cc(C#N)ccc1-c1cnn(-c2ccc(C(=O)N3CCC(N4CCOCC4)C3)cn2)c1O` (centres unmarked) [Example 347, 4-(5-hydroxy-1-(5-(3-morpholinopyrrolidine-1-carbonyl)pyridin-2-yl)-1H-pyrazol-4-yl)-3-methylbenzonitrile], the EC50 in assay [1] is 631 nM. Besides, the “PHD Inhibition (pIC50)” value in assay [2] amounted to 8.29.
Taken in the same sequence, the figures for `Cc1cc(-n2ncc(-c3ccc(C#N)cc3)c2O)ncc1C(=O)NCCC1CCCOC1` (centres unmarked) [Example 279, 6-(4-(4-cyanophenyl)-5-hydroxy-1H-pyrazol-1-yl)-4-methyl-N-(2-(tetrahydro-2H-pyran-3-yl)ethyl)nicotinamide] were 2630 nM and 7.1.
Taken in the same sequence, the figures for `N#Cc1ccc(-c2cnn(-c3ccc(C(=O)N4CCOCC4)cn3)c2O)cc1` [Example 123, 4-(5-hydroxy-1-(5-(morpholine-4-carbonyl)pyridin-2-yl)-1H-pyrazol-4-yl)benzonitrile] were 4790 nM and 7.16.
Regarding `N#Cc1ccc(-c2cnn(-c3ccc(C(=O)NC4CCNCC4)cn3)c2O)cc1` [Example 72], in assay [1], the EC50 is 2880 nM. Besides, the “PHD Inhibition (pIC50)” value in assay [2] is given as 7.8.
`COCCCCNC(=O)c1ccc(-n2ncc(-c3ccc(C#N)cc3OC)c2O)nc1` [Example 238, 6-(4-(4-cyano-2-methoxyphenyl)-5-hydroxy-1H-pyrazol-1-yl)-N-(4-methoxybutyl)nicotinamide]: in assay [1], the EC50 was 468 nM. Further, the “PHD Inhibition (pIC50)” value in assay [2] is 6.85.
The like results for `O=C(NCC1CCOCC1)c1ccc(-n2ncc(-n3ccccc3=O)c2O)nc1` [Example 192, 6-(5-hydroxy-4-(2-oxopyridin-1(2H)-yl)-1H-pyrazol-1-yl)-N-((tetrahydro-2H-pyran-4-yl)methyl)nicotinamide] were, in that order, 50100 nM and 6.84.
As for `Cc1cc(C#N)ccc1-c1cnn(-c2ccc(C(=O)N3CCN(C(C)C)[C@@H](C)C3)cn2)c1O` [Example 393, (S)-4-(5-hydroxy-1-(5-(4-isopropyl-3-methylpiperazine-1-carbonyl)pyridin-2-yl)-1H-pyrazol-4-yl)-3-methylbenzonitrile], the EC50 in assay [1] is 1450 nM. Further, the IC50 in assay [2] (read-out: PHD Inhibition (pIC50) (converted)) was 13.8 nM.
Take `N#Cc1ccc(-c2cnn(-c3ccc(C(=O)NC4CCCC4)cn3)c2O)cc1` [Example 151, 6-(4-(4-cyanophenyl)-5-hydroxy-1H-pyrazol-1-yl)-N-cyclopentylnicotinamide]: the EC50 in assay [1] was 3630 nM. Further, the “PHD Inhibition (pIC50)” value in assay [2] was 7.12.
With `Cc1cc(C#N)ccc1-c1cnn(-c2ccc(C(=O)NC(C)(C)CN(C)C)cn2)c1O` [Example 187, 6-(4-(4-cyano-2-methylphenyl)-5-hydroxy-1H-pyrazol-1-yl)-N-(1-(dimethylamino)-2-methylpropan-2-yl)nicotinamide], the EC50 in assay [1] was 355 nM. Also, in assay [2], the “PHD Inhibition (pIC50)” value was 7.8.
In the case of `CC[C@@H](C)NC(=O)c1ccc(-n2ncc(-c3ccc(C#N)cc3C)c2O)nc1` [Example 58, (R)—N-(sec-butyl)-6-(4-(4-cyano-2-methylphenyl)-5-hydroxy-1H-pyrazol-1-yl)nicotinamide], in assay [1], the EC50 was 158 nM. Besides, the “PHD Inhibition (pIC50)” value in assay [2] was determined as 7.16.
Taken in the same sequence, the figures for `N#Cc1ccc(-c2cnn(-c3ccc(C(=O)NCCF)cn3)c2O)cc1` [Example 78, 6-(4-(4-cyanophenyl)-5-hydroxy-1H-pyrazol-1-yl)-N-(2-fluoroethyl)nicotinamide] were 1550 nM and 7.07.
With `COc1cc(-c2cnn(-c3ccc(C(=O)NCCCN4CCCCC4)cn3)c2O)ccn1` [Example 38, 6-(5-hydroxy-4-(2-methoxypyridin-4-yl)-1H-pyrazol-1-yl)-N-(3-(piperidin-1-yl)propyl)nicotinamide], the “Inhibition of PHD in cells (pEC50)” value in assay [1] is 6.02. Besides, in assay [2], the “PHD Inhibition (pIC50)” value amounted to 7.5.
Consider `Cc1c(-c2cnn(-c3ccc(C(=O)N4CCN(C)CC4)cn3)c2O)ccc(C#N)c1F` [Example 322, 2-fluoro-4-(5-hydroxy-1-(5-(4-methylpiperazine-1-carbonyl)pyridin-2-yl)-1H-pyrazol-4-yl)-3-methylbenzonitrile], for which the EC50 in assay [1] was 933 nM. Also, the “PHD Inhibition (pIC50)” value in assay [2] stood at 8.26.
The like results for `Cc1cc(C#N)ccc1-c1cnn(-c2ccc(C(=O)NC(CO)C3CCOC3)cn2)c1O` (centres unmarked) [Example 71, 6-(4-(4-cyano-2-methylphenyl)-5-hydroxy-1H-pyrazol-1-yl)-N-(2-hydroxy-1-(tetrahydrofuran-3-yl)ethyl)nicotinamide] were, in that order, 269 nM and 7.24.

Values taken from patent US10407409B2, “6-(5-hydroxy-1H-pyrazol-1-yl)nicotinamide inhibitors of PHD” (Takeda Pharmaceutical Company Limited, priority 2013, dated 2019).
